Experimental data reported in US6660737B2, “Medicinal uses of hydrazones” (The Procter & Gamble Company, priority 2001, dated 2003).

Each compound was assayed on VEGF (assay: VEGF-ELISA assay: VEGF secretion from HL-1 cardiomyocyte cell line). Conditions: HL-1 cells, 18 hr, VEGF in conditioned media by ELISA; read-out: EC50 (concentration of compound that induces the production of an amount of VEGF equal to half the maximum amount of VEGF induced by that compound).
Assay type: cell-based, Murine
Experimental: ^1EC50 is the concentration of compound that induces the production of an amount of VEGF equal to half the maximum amount of VEGF induced by that compound.
Any compound of the present invention can be screened by a VEGF-ELISA assay. VEGF secretion is assayed in the HL-1 cardiomyocyte cell line as described in Claycomb, W. C., “HL-1 cells: a cardiac muscle cell line that contracts and retains phenotypic characteristics of the adult cardiomyocyte”, Proc. Natl. Acad. Sci U.S.A., Vol. 95, pp. 2979-84 (1998). For experiments, HL-1 cells are plated in 96-well plates at a density of 2×10^4 cells per well in growth medium: EXCEL 320 media (JRH Biosciences, Lenexia, Kans.) plus 10% fetal bovine serum (BioWhitaker), 100 nM retinoic acid (Sigma, St Louis, Mo.), 10 μM norepinephrine (Sigma), 10 μg/ml insulin (Life Technologies, Grand Island, N.Y.), 1× non-essential amino acid supplement (Life Technologies), 50 μg/ml endothelial cell growth supplement (Upstate Biotechnology, Lake Placid, N.Y.), 100 units/ml penicillin, 100 units/mil streptomycin (Life Technologies). After 24 hrs, the media is replaced with a low-growth media (HL-1 media with 2% fetal bovine serum and without endothelial cell growth supplement) containing test compounds with 0.5% dimethyl sulfoxide (DMSO). After 18 hrs, conditioned media from the treated cells was assayed for VEGF content with a Murine VEGF-ELISA kit (R & D Systems, Minneapolis, Minn.). The amount of VEGF secreted into the media over an 18 hr period is normalized to positive control wells which are treated with a maximally effective concentration (1 mM) of deferoxamine mesylate (Sigma, St. Louis) and are reported as “percent activity,” where the VEGF in unstimulated wells is defined as 0% and the VEGF in wells treated with 1 mM deferoxamine is defined as 100%. Potency is determined by stimulating cells with 10 concentrations of test compounds (200 nM to 100 μM) and fitting the data to a variable slope sigmoidal dose-response curve using GraphPad Prism version 3.00 for Windows 95 (GraphPad Software, San Diego, Calif.). Determinations for each test compound are performed in three separate experiments and the means ±standard deviation of the Log(EC50) and maximum response are evaluated. Compounds for pharmaceutical use are selected based upon the greatest percent activity.

| SMILES | EC50 [µM] |
| --- | --- |
| Oc1ccccc1/C=N/Nc1nccnc1Cl [Example 19, 2-[(3-Chloro-pyrazin-2-yl)-hydrazonomethyl]-phenol] | 15 |
| Oc1ccc(/C=N/Nc2nc(N3CCCC3)nc(N3CCCC3)n2)cc1O [Example 28, 4-[(4,6-Di-pyrrolidin-1-yl-[1,3,5]triazin-2-yl)-hydrazonomethyl]-benzene-1,2-diol] | 1.1 |
| CN(/N=C/c1ccccn1)c1ccccn1 [Example 3, N-methyl-N-pyridin-2-yl-N′-pyridin-2-ylmethylene-hydrazine] | 0.75 |
| Cc1ccccc1/C=N/Nc1ccccc1 [Example 17, N-(2-Methyl-benzylidene)-N′-phenyl-hydrazine] | 15 |
| C/C(=N\N(C)c1ccccn1)c1ccccn1 [Example 5, N-Methyl-N-pyridin-2-yl-N′-(1-pyridin-2-yl-ethylidene)-hydrazine] | 26.2 |
| CN(/N=C/c1ccccn1)c1ncc(C(F)(F)F)cc1Cl [Example 11, N-(3-Chloro-5-trifluoromethyl-pyridin-2-yl)-N-methyl-N′pyridin-2-ylmethylene-hydrazine] | 15 |
| FC(F)(F)c1cnc(N/N=C/c2ccccn2)c(Cl)c1 [Example 10, N-(3-Chloro-5-trifluoromethyl-pyridin-2-yl)-N′-pyridin-2-ylmethylene-hydrazine] | 1.56 |
| C(=N\Nc1ccccc1)/c1ccccn1 [Example 16, N-Phenyl-N′-pyridin-2-ylmethylene-hydrazine] | 13 |
| Clc1ccc(N/N=C/c2ccccn2)nn1 [Example 9, N-(6-Chloro-pyridazin-3-yl)-N′-pyridin-2-ylmethylene-hydrazine] | 6.7 |
| c1ccc(CNNc2ccccn2)nc1 [Example 4, N-Pyridin-2-yl-N′-pyridin-2-ylmethyl-hydrazine] | 5.7 |
| C(=N\Nc1nc2ccccc2s1)/c1ccccn1 [Example 6, N-Benzothiazol-2-yl-N′-pyridin-2-ylmethylene-hydrazine] | 1.5 |
| C/C(=N\Nc1ccc(C(F)(F)F)cc1)c1ccccn1 [Example 13, N-(1-Pyridin-2-yl-ethylidene)-N′-(4-trifluoromethyl-phenyl)-hydrazine] | 4.3 |
| C(=N\Nc1ccccn1)/c1ccccn1 [Example 1, N-Pyridin-2-yl-N′-2-ylmethylene-hydrazine] | 1.6 |
| Cc1ncc(CO)c(/C=N/Nc2ccccn2)c1O [Example 22, 5-Hydroxymethyl-2-methyl-4-(pyridin-2-yl-hydrazonomethyl)-3-ol] | 1.77 |
| Cc1sc2ncnc(N/N=C/c3c(O)ccc4ccccc34)c2c1C [Example 27] | 1.8 |
| Oc1ccc(/C=N/Nc2nccnc2Cl)c(O)c1 [Example 21, 4-[(3-Chloro-pyrazin-2-yl)-hydrazonomethyl]-benzene-1,3-diol] | 10.3 |
| C(=N\Nc1ccc2ccccc2n1)/c1ccccn1 [Example 7, N-Pyridin-2-ylmethylene-N′-quinolin-2-yl-hydrazine] | 3.15 |
| Oc1ccccc1/C=N/Nc1ccccn1 [Example 20, 2-Pyridyl-(2-hydroxy-benzylidene)-hydrazide] | 5.7 |
| C(=N\Nc1nnc2c(n1)[nH]c1ccccc12)/c1ccccn1 [Example 14, N-Pyridin-2-ylmethylene-N′-(9H-1,3,4,9-tetraaza-fluoren-2-yl)-hydrazine] | 2.3 |
| Cc1cccc(/C=N/Nc2ccc(Cl)nn2)n1 [Example 26, N-(6-Chloro-pyridazine-3-yl)-N′-(6-methyl-pyridin-2-ylmethylene)-hydrazine] | 40 |
| Cc1cccc(/C=N/Nc2ccccn2)n1 [Example 25, N-(6-Methyl-pyridin-2-ylmethylene)-N′-pyridin-2-yl-hydrazine] | 28.6 |
| C/C(=N\Nc1ccccn1)c1ccccn1 [Example 2, N-Pyridin-2-yl-N′-(1-pyridin-2-yl-ethylidene)hydrazine] | 0.65 |
| COc1cccc(/C=N/Nc2ccccn2)c1O [Example 23, 2-Methoxy-6-(pyridin-2-yl-hydrazonomethyl)-phenol] | 7 |
| FC(F)(F)c1cc(C(F)(F)F)c2ccc(N/N=C/c3ccccn3)nc2n1 [Example 8, N-(5,7-Bis-trifluoromethyl-[1,8]naphthyridin-2-yl)-N′-pyridin-2-ylmethylene-hydrazine] | 1.57 |
| Oc1ccccc1/C=N/Nc1ccccc1 [Example 18, 2-(Phenyl-hydrazonomethyl)-phenol] | 14 |
| C/C(=N\Nc1nc(C)cc(C)n1)c1ccccn1 [Example 12, N-(4,6-Dimethyl-pyrimidin-2-yl)-N′-(1-pyridin-2-yl-ethylidien)-hydrazine] | 4.78 |
| C/C(=N\Nc1nnc2c(n1)[nH]c1ccccc12)c1ccccn1 [Example 15, N-(1-Pyridin-2-yl-ethylidene)-N-(9H-1,3,4,9-tetraaza-fluoren-2-yl)-hydrazine] | 0.36 |
